Test results from patent publication US10130619B2, “Amido thiadiazole derivatives as NADPH oxidase inhibitors” (GENKYOTEX SUISSE SA, priority 2014, dated 2018).
pKi: −log10 of the molar value.

Each molecule was assayed against hNOX1 (Homo sapiens (Human), UniProt Q9Y5S8) (assay: ROS production measurement on hNOX1 membranes (Amplex Red fluorescence assay, assay 1)). Details: assay 1: membranes from CHO cells overexpressing hNox1, Amplex Red/HRP fluorescence, NADPH 30 μM; non linear regression (GraphPad Prism); read-out: Nox1 inhibitory constant Ki.
hNOX1, sequence (Q9Y5S8 whole entry): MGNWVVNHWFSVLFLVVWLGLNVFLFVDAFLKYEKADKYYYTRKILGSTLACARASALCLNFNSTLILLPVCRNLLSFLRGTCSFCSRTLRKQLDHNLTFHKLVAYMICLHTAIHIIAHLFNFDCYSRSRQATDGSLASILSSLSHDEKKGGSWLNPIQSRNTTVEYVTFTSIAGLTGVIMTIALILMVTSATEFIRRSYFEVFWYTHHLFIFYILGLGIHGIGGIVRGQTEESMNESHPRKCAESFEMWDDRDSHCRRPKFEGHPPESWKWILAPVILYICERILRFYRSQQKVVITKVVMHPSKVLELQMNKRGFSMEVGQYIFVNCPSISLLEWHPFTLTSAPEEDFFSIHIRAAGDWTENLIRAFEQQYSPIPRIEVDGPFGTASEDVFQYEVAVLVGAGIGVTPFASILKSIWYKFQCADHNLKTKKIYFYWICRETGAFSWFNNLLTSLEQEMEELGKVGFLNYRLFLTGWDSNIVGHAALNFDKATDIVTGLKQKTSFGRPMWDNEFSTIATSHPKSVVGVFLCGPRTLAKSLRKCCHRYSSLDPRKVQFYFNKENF
hNOX1, sequence (P13498 whole entry partner): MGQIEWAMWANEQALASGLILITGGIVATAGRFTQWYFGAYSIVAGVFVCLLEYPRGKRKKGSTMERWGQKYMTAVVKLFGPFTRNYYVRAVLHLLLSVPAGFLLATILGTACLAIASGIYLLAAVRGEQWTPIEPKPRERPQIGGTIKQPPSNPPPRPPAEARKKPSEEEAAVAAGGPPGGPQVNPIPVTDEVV
Type: biochemical
Description: Reactive oxygen species (ROS) production generated by hNOX1 enzyme was measured by fluorescence in both cellular and membrane-based assays using the Amplex® Red reagent. In the presence of horseradish peroxidase (HRP), the Amplex® Red reagent (10-acetyl-3,7-dihydroxyphenoxazine, AR), which is a colorless and nonfluorescent derivative of dihydroresorufin, reacts with H2O2 with a 1:1 stoichiometry to produce highly fluorescent resorufin at an excitation and emission wavelengths of 544 nm and 590 nm, respectively.
After resuspension in sonication buffer (11% sucrose, 120 mM NaCl, 1 mM EGTA in PBS, pH 7.4), cells were broken by sonication and centrifuged (200 g, 10 min). The supernatant was layered onto a 17/40% (w/v) discontinuous sucrose gradient and centrifuged (150,000 g for 30 min). Membrane fractions were collected from the 17/40% interface, aliquoted in 10 μl samples and were stored at −80° C. Protein concentration was determined with Bradford reagent. Flavin Adenine Dinucleotide (FAD) (catalog # F6625-500MG), MgCl2 (catalog # M8266-100G), Phosphatidic Acid (PA) (catalog # P3591-50MG) were purchased from Sigma-Aldrich. […] NADPH (catalog #A1395, 0500) was purchased from Applichem. Amplex red (AR) (catalog # A22177) was purchased from Invitrogen. […] FLUOstar OPTIMA microplate reader was supplied by BMG Labtech (Germany). Zephyr® Compact Liquid Handling Workstation was supplied by PerkinElmer (Germany).
Assay 1: ROS Production Measurement on hNOX1 Membranes
All solutions were placed on ice and protected from light.
The NADPH was dissolved in water at a concentration of 12 mM and was transferred in a metal transfer plate kept at 4° C. The NADPH was added to the assay plate to initiate the reaction just before the measurement.
Serial dilution (1:3, 10 serial dilution) of the compounds was performed in 100% DMSO in 96 well polypropylene plate—Row B-H […], Row A, Column 1-10 contained reference compound. Starting concentration was 10^−2 M (10 mM). Final concentration in assay was 10^−4 M (100 μM). Compounds were diluted twice in PBS buffer by transferring 30 μl/well of PBS into 30 μl/well compounds sample in DMSO using Zephyr® Compact Liquid Handling Workstation. Control wells-columns 1 and 12-contained 60 μl DMSO in 50% PBS pH7.
Reaction mixture is dispensed using Zephyr® Compact Liquid Handling Workstation. 90 μl of mix with membrane were dispensed into 96 well black plates—Column 2-11, Column 1 Row A-D, Column 12 Row E-H. 90 μl of control mix were dispensed into assay plate—Column 1 Row E-H, Column 12 Row A-D, which are wells for measuring background signal. 2 μl of compounds were dispensed into each well of assay plate using Zephyr® Compact Liquid Handling Workstation. The reaction mixture with compounds was incubated in assay plates for 20 min at 37° C. in a Titramax microplate incubator with gentle agitation. 10 μl of NADPH is dispensed to the assay plate. Fluorescence reading was recorded with the FLUOstar OPTIMA microplate reader for 10 min at 37° C. (8 cycles, 1 cycle duration 55 sec).

SMILES | pKi
CN1CCN(c2cc(C(=O)Nc3nnc(-c4ccncc4)s3)cnc2OCc2ccccc2)CC1 [Example 24, 6-(benzyloxy)-5-(4-methylpiperazin-1-yl)-N-(5-(pyridin-4-yl)-1,3,4-thiadiazol-2-yl)nicotinamide] | 7.21
C[C@H](Oc1ncc(C(=O)Nc2nnc(-c3ccncc3)s2)cc1OCC1CCOCC1)c1ccccc1 [Example 37, (S)-6-(1-phenylethoxy)-N-(5-(pyridin-4-yl)-1,3,4-thiadiazol-2-yl)-5-((tetrahydro-2H-pyran-4-yl)methoxy)nicotinamide] | 7.42
O=C(Nc1nnc(-c2ccncc2)s1)c1ccc(O[C@@H](CN2CCOCC2)c2ccccc2)nc1 [Example 39, (R)-6-(2-morpholino-1-phenylethoxy)-N-(5-(pyridin-4-yl)-1,3,4-thiadiazol-2-yl)nicotinamide] | 7.00
COc1cc(C(=O)Nc2nnc(-c3ccncc3)s2)ccc1CN1Cc2ccccc2C1 [Example 40, 4-(isoindolin-2-ylmethyl)-3-methoxy-N-(5-(pyridin-4-yl)-1,3,4-thiadiazol-2-yl)benzamide] | 6.72

Further lines, results first:

pKi | SMILES
7.74 | COCCNc1cc(C(=O)Nc2nnc(-c3ccncc3)s2)cnc1O[C@@H](C)c1ccccc1 [Example 22, (S)-5-((2-methoxyethyl)amino)-6-(1-phenylethoxy)-N-(5-(pyridin-4-yl)-1,3,4-thiadiazol-2-yl)nicotinamide]
7.19 | CC(C)(O)[C@H](Oc1ncc(C(=O)Nc2nnc(-c3ccncc3)s2)cc1Cl)c1ccccc1 [Example 29, (R)-5-chloro-6-(2-hydroxy-2-methyl-1-phenylpropoxy)-N-(5-(pyridin-4-yl)-1,3,4-thiadiazol-2-yl)nicotinamide]
7.35 | CC(Cc1ccccc1)Oc1ccc(C(=O)Nc2nnc(-c3ccncc3)s2)cn1 (stereo not shown) [Example 34, 6-((1-phenylpropan-2-yl)oxy)-N-(5-(pyridin-4-yl)-1,3,4-thiadiazol-2-yl)nicotinamide]
